From patent US9302014B2, “Cell-penetrating peptides having a central hydrophobic domain” (Medical Research Council, priority 2011, dated 2016)

What was measured:
dystrophin [1] = assay: Immunohistochemical staining and quantification of dystrophin in mdx mice after single IV injection; type: in vivo; conditions: heart; mdx mice, single 12.5 mg/kg IV, 2 weeks; relative to laminin, normalised to C57BL10
Source text: (§1) Given the potency of Pip5e-PMO in heart tissue, the aim of altering the sequence of the hydrophobic core (whilst maintaining the 5-aa length) was to identify peptides that might be more efficient at lower doses. These modifications included inversion of the hydrophobic region (Pip6a), substitution of tyrosine by isoleucine (Pip6b), substitution of glutamine in the Pip6a sequence by displacement of the arginine immediately flanking the core in the first arginine-rich flanking region (Pip6e), and a scrambled hydrophobic core sequence (Pip6f). All Pip6 peptide-PMO conjugates were administered to mdx mice as single 12.5 mg/kg intravenous injections via the tail vein and tissues were harvested 2 weeks later and assessed for activity at both RNA and protein levels.
Immunohistochemical staining quantification (FIGS. 34a, b) was performed as previously described [Malerba, A., et al., Chronic systemic therapy with low-dose morpholino oligomers ameliorates the pathology and normalizes locomotor behavior in mdx mice. Mol Ther, 2011. 19(2): p. 345-54; Arechavala-Gomeza, V., et al., Immunohistological intensity measurements as a tool to assess sarcolemma-associated protein expression. Neuropathol Appl Neurobiol, 2010. 36(4): p. 265-74.] and was achieved by taking 4 representative frames of the dystrophin staining and correlating this with laminin staining for each section (n=3) of the quadriceps, diaphragm and heart for each peptide-PMO treatment. Untreated mdx and treated mdx mice were normalised to C57BL10 mice. This method allows comparison of the staining intensity of dystrophin at the sarcolemma relative to laminin for each treatment group. Intensity ratios are normalised to C57BL10 samples and each region of interest at the sarcolemma (120 regions for each treatment group) is plotted on a scatter graph. […]
Transverse sections of tissue samples were cut (8 μm thick) for the examination of dystrophin expression. For dystrophin visualisation and quantification, sections were co-stained with rabbit-anti-dystrophin (Abcam) and rat anti-laminin (Sigma), and detected by goat-anti-rabbit IgG Alexa 594 and goat-anti-rat IgG 488 secondary antibodies respectively (Invitrogen). […] Quantitative immunohistochemistry was performed as previously described [Malerba, A., et al., Chronic systemic therapy with low-dose morpholino oligomers ameliorates the pathology and normalizes locomotor behavior in mdx mice. […] For quantification, 4 representative frames of the dystrophin and correlating laminin were taken for each section (n=3) of the quadriceps, diaphragm and heart for each treatment. […] The minimum and maximum fluorescence intensity for 120 regions were recorded for each treatment. […]

dystrophin exon 23 = assay: RT-PCR and quantitative real time PCR of exon skipping in mdx mouse tissues; type: in vivo, mdx mice; conditions: diaphragm; single 12.5 mg/kg IV, 2 weeks
Source text: as §1
The RTPCR representative images (FIG. 34d) illustrate high exon skipping efficiency in all tissues analysed. This is better shown by Real Time PCR (qRT-PCR) results for the quadriceps, diaphragm and heart (FIG. 34c). The delta 23 transcript is normalised against ‘total dystrophin’ for each muscle group (n=3). […] Western blots (FIG. 34e) were performed on the tissues of each mouse and were quantified against a 50% and 10% C57BL10 control.
Four and a half month old to 5½ month old mdx mice were used in these experiments (n=3). […]

[2] = Serum stability of Pip-PMO conjugates in 100% mouse serum (HPLC, MALDI-TOF); type: in vitro ADME; conditions: 37° C.
Description: Serum stability may be measured by adding an aliquot of Pip-PMO (10 nmoles) to 100% mouse serum (100 μL) and incubating at 37° C. for 120 or 240 min. Each reaction is diluted with IM guanidinium-HCl solution (300 μL) and ice-cold acetonitrile (600 μL). Samples are mixed and kept at −20° C., and the precipitated serum proteins separated by centrifugation (13000 rpm, 5 min). After centrifugation, the supernatant is collected, lyophilized and the residue dissolved in water for analysis for peptide degradation by MALDI-TOF mass spectrometry and by reversed phase HPLC. HPLC conditions are: Column, C18 reversed-phase (250×4.6 mm); Solvent A, 0.1% TFA, Solvent B, 90% Acetonitrile, 10% solvent A; Gradient, 10%-50% solvent B in 25 minutes.
Serum stability was measured by adding an aliquot of Pip-PMO (10 nmoles) to 100% mouse serum (100 μL) and incubating at 37° C. for 120 or 240 min. Each reaction was diluted with IM guanidinium-HCl solution (300 μL) and ice-cold acetonitrile (600 μL). Samples were mixed and kept at −20° C., and the precipitated serum proteins separated by centrifugation (13000 rpm, 5 min). After centrifugation, the supernatant was collected, lyophilized and the residue dissolved in water for analysis for peptide degradation by MALDI-TOF mass spectrometry and by reversed phase HPLC. […]

dystrophin [3] = conditions: single 25 mg/kg administration; cited from earlier work

RXRRBRRXRILFQYRXRBRXRBC [Pip5e-PMO]
percent recovery score (% RS), dystrophin immunostaining (dystrophin [1]): 17.32% | Δ23 exon skipping by qRT-PCR (dystrophin exon 23): highest exon skipping | stability in 100% mouse serum ([2]; 120 min (2 h), HPLC and MALDI-TOF): unchanged Pip-PMO conjugate | levels of PMO conjugated to fragments of peptide ([2]; 100% mouse serum, 120 minutes): very similar to that for (RXRRBR)2XB-PMO | dystrophin protein restoration in all muscle types, including heart (dystrophin [3]): high levels
